Experiments:
[1] = Extraction of diluted HCl hydrolyzate at 70° C. (Table VIII); type: physicochemical; details: HMBA extract/raffinate, HCl hydrolyzate diluted 100:40 with water
Excerpt: The phases were separated and analyzed for HMBA.
This work up and extraction was repeated for 1-butanol.

[2] = Gardner color of HMBA product; type: physicochemical
Excerpt: This product has a total HMBA content, including monomer, dimers, and oligomers, of between about 80% and about 95% by weight, preferably 85% to 90% by weight, and a water content of between about 5% and about 20%, preferably between 10% and about 15% by weight. […] The ratio of the weight proportion of HMBA monomer to the weight proportion of the sum of dimers and other oligomers thereof is at least about 2.8, preferably at least about 5.7.

| Gardner color ([2]; 88% by weight solution in water, Example 1, first method (methyl propyl ketone and water extraction)) | Color (Gardner) ([2]; Example 6, Product) | Gardner color ([2]; Example 13, bottom product, 88.9% HMBA) | Compound | Distribution Coefficient [1] |
| --- | --- | --- | --- | --- |
| – | – | – | CC(=O)CC(C)C [Methyl isobutyl ketone] | 2.4 |
| 5 | 3 | 4 | CSCCC(O)C(=O)O (racemic) [HMBA, 2-hydroxy-4-methylthiobutyric acid] | – |

Source: patent US4524077A, “Liquid 2-hydroxy-4-methylthiobutyric acid and process for the preparation thereof” (priority 1983, dated 1985)
